According to patent US4745100A, “Stimulation of tear secretion” (Eye Research Institute of Retina Foundation, priority 1986, dated 1988):
Entries after “also recorded” stand apart in the source; their conditions may differ. No end group written: not given here.

How the values were obtained:
[1] = tested on: rabbits with dry eyes; experiment: Tear film osmolality in dry eye rabbit after topical test drop; format: in vivo; conditions: 10 μl topical drop
Experimental: In vivo examples of the invention were conducted on rabbits with dry eyes. The dry eye disorder is created by surgically closing the duct that carries fluid from the main lacrimal gland to the tear film and surgically removing the nictitans and harderian glands. This leaves intact only the accessory glands that lie on the ocular surface. These rabbits develop increased tear film osmolality soon after the operation, a finding that is understood to be due to decreased tear production, and that is characteristic of dry eye. It is recognized that results of ophthalmologic tests using rabbits has close correlation with humans, and therefore the results carry over to humans.
The effect of topically applied isotonic buffer solution with and without VIP on tear film osmolality was studied in the dry eye rabbit. All test drops were ten μl in volume and were applied in each case six minutes after the instillation of proparacaine, which anesthetizes the surface of the eye and prevents reflex tearing. Tear samples were taken with a micropipette system, in the manner described in the article entitled "Osmolarity of Tear Microvolumes in Keratoconjunctivitis Sicca", by Gilbard et al, Arch Ophthalmol 96:677, 1978. Osmolality was measured by freezing-point depression.
The following protocol was used for each drop tested. Six minutes prior to instillation of the test drop proparacaine was instilled. At zero time a tear sample was taken for measurement of osmolality. At one minute the test drop was instilled. At six and at sixteen minutes, tear samples were taken for osmolality measurements. The procedure for instilling each test drop is that the drop of buffered solution was first instilled in the dry eye and measurements were taken followed by a drop of buffered solution containing VIP. The following test drops were instilled: (1) buffer solution, (2) buffer solution containing 2×10^-8 M VIP, (3) buffer solution, (4) buffer solution containing 2×10^-7 M VIP, (5) buffer solution, (6) buffer solution containing 2×10^-6 M VIP. The results are shown in FIGS. 1A, 1B, and 1C and FIGS. 2A, 2B, and 2C, where FIGS. 1 and 2 each represent the results obtained from the same rabbit.
In separate experiments, the effect of topically applied isotonic buffer solution with or without glucagon or secretin on tear film osmolality was studied in dry eye rabbits. All test drops were ten microliters in volume. Tear osmolality was measured one minute prior to drop instillation and five and fifteen minutes after drop instillation. A drop of buffered solution was first instilled in the dry eye and measurements were taken followed by a drop of buffered solution containing glucagon or secretin, depending on the test.

[2] = additives needed; cited from earlier work
[3] = tested on: dry eye rabbits; experiment: Elimination of tracer Tc99m (sodium pertechnetate) from the tear film of dry eye rabbits; format: in vivo, rabbit; conditions: VIP 2×10^-6 M in 10 μl radioactive buffer
Experimental: In a separate example, dry eye rabbits were studied by examining the rate of elimination of a tracer substance technectium, Tc^99m, as sodium pertechnetate from the tear film. Essentially equivalent counts of Tc^99m were placed in ten microliters of, in some instances, a buffer solution to serve as a control, and in other instances, a buffer solution containing 2×10^-6 M VIP. Radioactivity present in the tear film was measured over contiguous fifteen second periods for thirty minutes with a gamma camera, and the measurements stored on a computer. The following protocol was used: Rabbits were anesthetized with IM rompun and ketamine. At zero time proparacaine was applied. At five minutes, the radioactive buffer with VIP was instilled in the eye. Radioactivity present in the tear film was then recorded as described. After thirty minutes, proparacaine was again instilled in the eye and the procedure repeated with radioactive buffer alone. […] This increased rate of tracer washout is understood to be indicative of increased tear secretion. In a second similar experiment, the effect of VIP was first tested, and then radioactive buffer alone, and then the effect of VIP again.

[4] = tested on: rat exorbital lacrimal gland; conditions: cited from earlier work
[5] = tested on: main (orbital) lacrimal gland; conditions: administered intravenously to rabbits; cited from earlier work
[6] = tested on: lacrimal gland; conditions: administered intra-arterially; cited from earlier work

For glucagon, the “effect on tear film osmolality versus buffer solution alone” value ([1]; glucagon 2×10^-6, 2×10^-5, 2×10^-4 M, 5 and 15 min after drop, FIG. 6) is given as “lowers tear film osmolality more effectively than buffer solution alone; also recorded: dose-dependent decrease in tear film osmolality” and the solubility [2] is given as “requires the additives glycerin and lactose to render it soluble”.

For “vasoactive intestinal peptide (HSDAVFTDNYTRLRKQMAVKKYLNSILN; ends and bridges not checked; UniProt P01282 125-152, looked up) [VIP]”, the “effect on tear film osmolality versus placebo, same experiment as CCK” value ([1]; VIP 2×10^-6 M, FIGS. 3A, 3B) was “decreased tear film osmolality more effectively than a placebo in one of two trials”, the “effect on tear film osmolality versus buffer solution alone” value ([1]; VIP 2×10^-8, 2×10^-7, 2×10^-6 M, samples at 6 and 16 min, FIGS. 1 and 2) was “lowers the tear film osmolality more effectively than buffer solution alone; also recorded: dose-dependent decrease in tear film osmolality” and the “slope of the elimination curve of Tc99m from tear film, first 15 minutes” value ([3]; topical, dry eye rabbit, placebo -0.82, FIG. 4) was -1.65. The “slope of the elimination curves versus radioactive buffer alone, second experiment” value ([3]; two VIP tests, FIG. 5) was “substantially steeper than for radioactive buffer alone”, the “protein secretion in vitro” value [4] was “stimulate protein secretion in vitro” and the “main (orbital) lacrimal gland secretion” value [5] was “can stimulate main (orbital) lacrimal gland secretion”. For the same molecule, the lacrimal gland secretion [6] was “stimulate lacrimal gland secretion”.

With secretin the “effect on tear film osmolality versus buffer solution alone” value ([1]; secretin 2×10^-7, 2×10^-6, 2×10^-5 M, 5 and 15 min after drop, FIG. 7) was “lowers tear film osmolality more effectively than buffer solution alone; also recorded: dose-dependent decrease in tear film osmolality”.

B1: Cholecystokinin (peptide, UniProt P06307 21-115, looked up)
Cholecystokinin: QPVPPADPAGSGLQRAEEAPRRQLRVSQRTDGESRAHLGALLARYIQQARKAPSGRMSIVKNLQNLDPSHRISDRDYMGWMDFGRRSAEEYEYPS
modifications: Cholecystokinin
notes: gastrointestinal hormone tested topically as comparison
In the case of B1, the “effect on tear osmolality versus placebo” value ([1]; CCK 2×10^-4 M, FIG. 3B) is given as “did not lower tear osmolality more effectively than a placebo” and the lacrimal gland secretion [6] is given as “stimulate lacrimal gland secretion”.
